Counter-ions that a name gives are not always drawn.
Biological target: T1, hNET (Homo sapiens, UniProt P23975)
T1 construct: expressed in transfected cells; host or cells: MDCK-Net6 (MDCK cells stably transfected with hNET)
Test: Norepinephrine (NE) uptake assay in MDCK-Net6 cells
Type: cell-based
Settings: [3H]NE uptake, MDCK-Net6 cells stably transfected with human hNET; for inhibition at 1 µM: 1 μM test compound; for EC50: test range 1 to 10,000 nM
Method: MDCK-Net6 cells, stably transfected with human hNET (Pacholczyk, T., R. D. Blakely, and S. G. Amara, Nature, 1991, 350(6316): p. 350-4) were cultured in growth medium containing high glucose DMEM (Gibco, Cat. No. 11995), 10% FBS (dialyzed, heat-inactivated, US Bio-Technologies, Lot FBD1129HI) and 500 μg/ml G418 (Gibco, Cat. No. 10131). Cells were plated at 300,000/T75 flask and cells were split twice weekly. The JAR cell line (human placental choriocarcinoma) was purchased from ATCC (Cat. No. HTB-144). The cells were cultured in growth medium containing RPMI 1640 (Gibco, Cat. No. 72400), 10% FBS (Irvine, Cat. No. 3000), 1% sodium pyruvate (Gibco, Cat. No. 1136) and 0.25% glucose. Cells were plated at 250,000 cells/T75 flask and split twice weekly. For all assays, cells were plated in Wallac 96-well sterile plates (PerkinElmer, Cat. No. 3983498).
On day 1, cells were plated at 3,000 cells/well in growth medium and maintained in a cell incubator (37° C., 5% CO2). On day 2, growth medium was replaced with 200 μl of assay buffer (25 mM HEPES; 120 mM NaCl; 5 mM KCl; 2.5 mM CaCl2; 1.2 mM MgSO4; 2 mg/ml glucose (pH 7.4, 37° C.)) containing 0.2 mg/ml ascorbic acid and 10 μM pargyline. Plates containing cells with 200 μl of assay buffer were equilibrated for 10 minutes at 37° C. prior to addition of compounds. A stock solution of desipramine was prepared in DMSO (10 mM) and delivered to triplicate wells containing cells for a final test concentration of 1 μM. Data from these wells were used to define non-specific NE uptake (minimum NE uptake). Test compounds were prepared in DMSO (10 mM) and diluted in assay buffer according to test range (1 to 10,000 nM). Twenty-five microliters of assay buffer (maximum NE uptake) or test compound were added directly to triplicate wells containing cells in 200 μl of assay buffer. The cells in assay buffer with test compounds were incubated for 20 minutes at 37° C. To initiate the NE uptake, [^3H]NE diluted in assay buffer (120 nM final assay concentration) was delivered in 25 μl aliquots to each well and the plates were incubated for 5 minutes (37° C.). The reaction was terminated by decanting the supernatant from the plate. The plates containing cells were washed twice with 200 μl assay buffer (37° C.) to remove free radioligand. The plates were then inverted, left to dry for 2 minutes, then reinverted and air-dried for an additional 10 minutes. The cells were lysed in 25 μl of 0.25 N NaOH solution (4° C.), placed on a shake table and vigorously shaken for 5 minutes. After cell lysis, 75 μl of scintillation cocktail was added to each well and the plates were sealed with film tape. The plates were returned to the shake table and vigorously shaken for a minimum of 10 minutes to ensure adequate partitioning of organic and aqueous solutions. The plates were counted in a Wallac Microbeta counter (PerkinElmer) to collect the raw cpm data.
For each experiment, a data stream of cpm values collected from the Wallac Microbeta counter was downloaded to a Microsoft Excel statistical application program. Calculations of EC50 values were made using the transformed-both-sides logistic dose response program written by Wyeth Biometrics Department. The statistical program uses mean cpm values from wells representing maximum binding or uptake (assay buffer) and mean cpm values from wells representing minimum binding or uptake ((1 μM desipramine (hNET) or 1 μM paroxetine (hSERT)). Estimation of the EC50 value was completed on a log scale and the line was fit between the maximum and minimum binding or uptake values. All graphic data representation was generated by normalizing each data point to a mean percent based on the maximum and minimum binding or uptake values. The EC50 values reported from multiple experiments were calculated by pooling the raw data from each experiment and analyzing the pooled data as one experiment.

T1 sequence (P23975 whole entry): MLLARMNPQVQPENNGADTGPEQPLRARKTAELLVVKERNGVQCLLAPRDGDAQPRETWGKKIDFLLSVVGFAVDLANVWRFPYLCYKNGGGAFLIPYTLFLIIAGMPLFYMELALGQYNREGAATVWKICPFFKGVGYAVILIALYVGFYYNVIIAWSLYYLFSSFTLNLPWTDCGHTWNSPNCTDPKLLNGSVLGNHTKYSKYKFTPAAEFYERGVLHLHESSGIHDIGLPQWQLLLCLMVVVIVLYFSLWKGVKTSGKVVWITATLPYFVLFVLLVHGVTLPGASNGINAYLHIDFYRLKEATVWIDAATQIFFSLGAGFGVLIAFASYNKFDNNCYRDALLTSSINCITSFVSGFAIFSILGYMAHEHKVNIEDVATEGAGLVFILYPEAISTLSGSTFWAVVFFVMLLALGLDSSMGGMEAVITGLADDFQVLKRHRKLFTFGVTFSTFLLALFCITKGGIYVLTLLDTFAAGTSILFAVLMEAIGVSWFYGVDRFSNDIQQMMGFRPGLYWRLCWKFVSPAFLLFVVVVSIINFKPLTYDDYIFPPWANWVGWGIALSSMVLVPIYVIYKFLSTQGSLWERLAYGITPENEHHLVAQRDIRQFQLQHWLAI

Row | inhibition at 1 µM [%] | EC50 [nM] | SMILES
1 | 77 | 460 | OC1(C(CN2CCN(Cc3ccncc3)CC2)c2cccc(Cl)c2)CCCCC1 (stereo not drawn) [Example 133, 1-{1-(3-chlorophenyl)-2-[4-(pyridin-4-ylmethyl)piperazin-1-yl]ethyl}cyclohexanol dihydrochloride]
2 | 69 | 930 | OC1(C(CN2CCN(Cc3cccnc3)CC2)c2cccc(Cl)c2)CCCCC1 (stereo not drawn) [Example 134, 1-{1-(3-chlorophenyl)-2-[4-(pyridin-3-ylmethyl)piperazin-1-yl]ethyl}cyclohexanol dihydrochloride]
3 | 96 | 290 | OC1(C(CN2CCN(Cc3cccc(Oc4ccccc4)c3)CC2)c2cccc(Cl)c2)CCCCC1 (stereo not drawn) [Example 123, 1-{1-(3-chlorophenyl)-2-[4-(3-phenoxybenzyl)piperazin-1-yl]ethyl}cyclohexanol dihydrochloride]
4 | 79 | 890 | OC1(C(CN2CCN(Cc3cc4ccccc4o3)CC2)c2cccc(Cl)c2)CCCCC1 (stereo not drawn) [Example 130, 1-[2-[4-(1-benzofuran-2-ylmethyl)piperazin-1-yl]-1-(3-chlorophenyl)ethyl]cyclohexanol dihydrochloride]
5 | 93 | 130 | OC1(C(CN2CCN(CC3CCCCC3)CC2)c2cccc(Cl)c2)CCCCC1 (stereo not drawn) [Example 126, 1-{1-(3-chlorophenyl)-2-[4-(cyclohexylmethyl)piperazin-1-yl]ethyl}cyclohexanol dihydrochloride]
6 | 78 | 170 | OC1(C(CN2CCN(Cc3ccc(OCc4ccccc4)cc3)CC2)c2cccc(Cl)c2)CCCCC1 (stereo not drawn) [Example 131, 1-[2-{4-[4-(benzyloxy)benzyl]piperazin-1-yl}-1-(3-chlorophenyl)ethyl]cyclohexanol dihydrochloride]
7 | 97 | 22 | CC(CCN1CCN(CC(c2cccc(Cl)c2)C2(O)CCCCC2)CC1)c1ccccc1 (stereo not drawn) [Example 121, 1-{1-(3-chlorophenyl)-2-[4-(3-phenylbutyl)piperazin-1-yl]ethyl}cyclohexanol dihydrochloride]
8 | 81 | 430 | CC(CN1CCN(CC(c2cccc(Cl)c2)C2(O)CCCCC2)CC1)c1ccccc1 (stereo not drawn) [Example 129, 1-{1-(3-chlorophenyl)-2-[4-(2-phenylpropyl)piperazin-1-yl]ethyl}cyclohexanol dihydrochloride]
9 | 87 | 61 | COc1ccc2cc(CN3CCN(CC(c4cccc(Cl)c4)C4(O)CCCCC4)CC3)ccc2c1 (stereo not drawn) [Example 117, 1-(1-(3-chlorophenyl)-2-{4-[(6-methoxy-2-naphthyl)methyl]piperazin-1-yl}ethyl)cyclohexanol dihydrochloride]
10 | 86 | 92 | OC1(C(CN2CCN(Cc3ccnc4ccccc34)CC2)c2cccc(Cl)c2)CCCCC1 (stereo not drawn) [Example 127, 1-{1-(3-chlorophenyl)-2-[4-(quinolin-4-ylmethyl)piperazin-1-yl]ethyl}cyclohexanol dihydrochloride]
11 | 97 | 57 | OC1(C(CN2CCN(CC3CC3)CC2)c2cccc(Cl)c2)CCCCC1 (stereo not drawn) [Example 118, 1-{1-(3-chlorophenyl)-2-[4-(cyclopropylmethyl)piperazin-1-yl]ethyl}cyclohexanol dihydrochloride]
12 | 83 | 490 | CCc1ccc(CN2CCN(CC(c3cccc(Cl)c3)C3(O)CCCCC3)CC2)o1 (stereo not drawn) [Example 128, 1-(1-(3-chlorophenyl)-2-{4-[(5-ethyl-2-furyl)methyl]piperazin-1-yl}ethyl)cyclohexanol dihydrochloride]
13 | 94 | 190 | OC1(C(CN2CCN(Cc3ccc4ccccc4c3)CC2)c2cccc(Cl)c2)CCCCC1 (stereo not drawn) [Example 124, 1-{1-(3-chlorophenyl)-2-[4-(2-naphthylmethyl)piperazin-1-yl]ethyl}cyclohexanol dihydrochloride]
14 | 97 | 130 | OC1CCCC(CN2CCN(CC(c3cccc(Cl)c3)C3(O)CCCCC3)CC2)O1 (stereo not drawn) [Example 120, 6-({4-[2-(3-chlorophenyl)-2-(1-hydroxycyclohexyl)ethyl]piperazin-1-yl}methyl)tetrahydro-2H-pyran-2-ol dihydrochloride]
15 | 97 | 110 | OC1(C(CN2CCN(CC3CC=CCC3)CC2)c2cccc(Cl)c2)CCCCC1 (stereo not drawn) [Example 119, 1-{1-(3-chlorophenyl)-2-[4-(cyclohex-3-en-1-ylmethyl)piperazin-1-yl]ethyl}cyclohexanol dihydrochloride]
16 | 77 | 70 | OC1(C(CN2CCN(Cc3ccc(Oc4ccccc4)cc3)CC2)c2cccc(Cl)c2)CCCCC1 (stereo not drawn) [Example 132, 1-{1-(3-chlorophenyl)-2-[4-(4-phenoxybenzyl)piperazin-1-yl]ethyl}cyclohexanol dihydrochloride]
17 | 93 | 120 | OC1(C(CN2CCN(Cc3ccoc3)CC2)c2cccc(Cl)c2)CCCCC1 (stereo not drawn) [Example 125, 1-{1-(3-chlorophenyl)-2-[4-(3-furylmethyl)piperazin-1-yl]ethyl}cyclohexanol dihydrochloride]
18 | 96 | 75 | OC1(C(CN2CCN(CCc3ccccc3)CC2)c2cccc(Cl)c2)CCCCC1 (stereo not drawn) [Example 122, 1-{1-(3-chlorophenyl)-2-[4-(2-phenylethyl)piperazin-1-yl]ethyl}cyclohexanol dihydrochloride]
